# Experimental data from patent US10882835B2 (Imago Biosciences, Inc., priority 2013, dated 2021).
# Tests used:
# [1] = target: KDM1A (LSD1) (Homo sapiens (Human), UniProt O60341); experiment: 10-dose IC50 fluorescence coupling enzyme assay, LSD1 demethylase activity on histone H3(1-21)K4me2 peptide (HRP/Amplex Red); format: biochemical; conditions: 10 μM histone H3(1-21)K4me2 peptide substrate
# [2] = Metabolic stability in murine liver microsomes; format: in vitro ADME; conditions: mouse liver microsomes, 2 μM compound, NADPH
# Method: The metabolic stability of compounds disclosed herein in pooled human liver microsomes (HLM) and pooled male mouse liver microsomes (MMLM) was determined according to the following protocol, in which the concentrations of compounds in reaction systems were evaluated by LC/MS/MS for estimating the stability in liver microsomes.
# Pooled human liver microsomes (HMMCPL; PL050B) and pooled male mouse liver microsomes (MSMCPL; MS033) were purchased from CellzDirect (Invitrogen). Microsomes were stored at −80 C prior to use.
# A master solution was prepared containing microsome (stock concentration 5 mg/mL, volume 50 μL, final concentration 0.5 mg/mL), MgCl2 solution (stock concentration 50 mM, volume 50 μL, final concentration 5 mM), phosphate buffer (stock concentration 200 mM, volume 250 μL, final concentration 100 mM), and water (volume […]. Five μL of 200 μM test compounds or control solution (control compound: verapamil) was then added. The final concentration of test compounds or verapamil in the reaction system was 2 μM. The mixture was pre-warmed at 37 C for 5 min.
# The reaction was started with the addition of 50 μL of 10 mM NADPH solution at the final concentration of 1 mM and carried out at 37 C. 50 μL of ultra-pure H2O was used instead of NADPH solution in the negative control.
# Aliquots of 50 μL were taken from the reaction solution at 0 and 30 min. The reaction was stopped by the addition of 3 volumes of cold methanol with IS (200 nM imipramine, 200 nM labetalol and 2 μM ketoprofen) at the designated time points. Samples were centrifuged at 16,000 g for 10 minutes to precipitate protein. Aliquot of 100 μL of the supernatant was diluted by 100 μL ultra-pure H2O, and the mixture was used for LC/MS/MS analysis. All experiments were performed in duplicate.
# Samples were analyzed using liquid chromatography-mass spectrometry. The LC system comprised a Shimadzu liquid chromatograph separation system equipped with degasser DGU-20A3, solvent delivery unit LC-20AD, system controller CBM-20A, column oven CTO-10ASVP and CTC Analytics HTC PAL System. Chromatographic conditions included a Phenomenex column, 5.0μ C18 (2.0×50 mm); a mobile phase of 0.1% formic acid in acetonitrile and 0.1% formic acid in water; an elution rate of 500 μL/min; column temperature 25 C; injection volume 10 μL. Mass spectrometric analysis was performed using an API 4000 instrument from AB Inc. (Canada) with an ESI interface. The data acquisition and control system were created using Analyst 1.5.1 software from ABI Inc. A turbo spray ion source and electrospray ionization were employed in a multiple reaction monitoring (MRM) scan. Additional parameters included: collision gas, 6 L/min; curtain gas, 30 L/min; nebulize gas, 50 L/min; auxiliary gas, 50 L/min; temperature, 500 C; ionspray voltage, +5500 v (positive MRM). Quadripoles Q1 and Q3 were set to 456.2 and 200.2, respectively; declustering potential (DP), entrance potential (EP), and collision cell entrance potential (CE) were set to 120, 10, and 55 v, respectively; collision cell exit potential (CXP) was 12 v.
# All calculations were carried out using Microsoft Excel. Peak areas were determined from extracted ion chromatograms. The control compounds were included in the assay. Any value of the compounds that was not within the specified limits was rejected and the experiment was repeated. The reaction system without the cofactors was used to exclude the misleading factor that resulted from instability of chemical itself.
SMILES,IC50 [1],"% at 30 min, MLM [2]","% at 30 min, MLM ([2]; numeric values of Table 2)"
"O=C(N[C@@H](CCCCN[C@@H]1C[C@H]1c1ccccc1)C(=O)N1CCCC1)c1ccccc1 [Example 1, N—((S)-1-oxo-6-(((1R,2S)-2-phenylcyclopropyl)amino)-1-(pyrrolidin-1-yl)hexan-2-yl)benzamide]",< 1000 nM,–,–
"O=C(N[C@@H](CCCCN[C@@H]1C[C@H]1c1ccccc1)C(=O)N1CCCCC1)c1ccccc1 [Example 2, N—((S)-1-oxo-6-(((1R,2S)-2-phenylcyclopropyl)amino)-1-(piperidin-1-yl)hexan-2-yl)benzamide]",< 1000 nM,− (− is <20%),–
"CN1CCN(C(=O)[C@H](CCCCN[C@@H]2C[C@H]2c2ccc(F)cc2)NC(=O)c2ccc(F)cc2)CC1 [Example 3, 4-fluoro-N—((S)-6-(((1R,2S)-2-(4-fluorophenyl)cyclopropyl)amino)-1-(4-methylpiperazin-1-yl)-1-oxohexan-2-yl)benzamide]",< 1000 nM,+ (+ is ≥20%),–
"CN1CCN(C(=O)[C@H](CCCCN[C@@H]2C[C@H]2c2ccccc2)NC(=O)c2ccccc2)CC1 [Example 4, N—((S)-1-(4-methylpiperazin-1-yl)-1-oxo-6-(((1R,2S)-2-phenylcyclopropyl)amino)hexan-2-yl)benzamide]",< 1000 nM,+ (+ is ≥20%),–
CCN(CC)C(=O)[C@H](CCCCN[C@@H]1C[C@H]1c1ccccc1)NC(=O)c1ccccc1 [Example 5],< 1000 nM,–,–
"O=C(N[C@@H](CCCCN[C@@H]1C[C@H]1c1ccccc1)C(=O)N1CCOCC1)c1ccccc1 [Example 6, N—((S)-1-morpholino-1-oxo-6-(((1R,2S)-2-phenylcyclopropyl)amino)hexan-2-yl)benzamide]",< 1000 nM,+ (+ is ≥20%),–
"O=C(N[C@@H](CCCCN[C@@H]1C[C@H]1c1ccc(F)cc1)C(=O)N1CCCCC1)c1ccccn1 [Example 7, N-[(2S)-6-[[(1R,2S)-2-(4-fluorophenyl)cyclopropyl]amino]-1-oxo-1-(piperidin-1-yl)hexan-2-yl]pyridine-2-carboxamide]",< 1000 nM,− (− is <20%),–
"C[C@@]1(NCCCC[C@H](NC(=O)c2ccccc2)C(=O)N2CCN(S(C)(=O)=O)CC2)C[C@H]1c1ccc(F)cc1 [Example 8, N—((S)-6-(((1R,2S)-2-(4-fluorophenyl)-1-methylcyclopropyl)amino)-1-(4-(methylsulfonyl)piperazin-1-yl)-1-oxohexan-2-yl)benzamide]",> 1000 nM,+ (+ is ≥20%),65%
"C[C@@]1(NCCS(=O)(=O)C[C@H](NC(=O)c2ccc(F)cc2)C(=O)N2CCOCC2)C[C@H]1c1ccc(F)cc1 [Example 17, 4-fluoro-N—((R)-3-((2-(((1R,2S)-2-(4-fluorophenyl)-1-methylcyclopropyl)amino)ethyl)sulfonyl)-1-morpholino-1-oxopropan-2-yl)benzamide]",< 1000 nM,− (− is <20%),2.7%

# Continued, in another order:
IC50 [1],"% at 30 min, MLM [2]",SMILES,"% at 30 min, MLM ([2]; numeric values of Table 2)"
< 1000 nM,− (− is <20%),"O=C(N[C@@H](CCCCN[C@@H]1C[C@H]1c1ccc(F)cc1)C(=O)N1CCCCC1)c1ccccc1 [Example 10, N—((S)-6-(((1R,2S)-2-(4-fluorophenyl)cyclopropyl)amino)-1-oxo-1-(piperidin-1-yl)hexan-2-yl)benzamide]",–
< 1000 nM,+ (+ is ≥20%),"O=C(N[C@@H](CCCCN[C@@H]1C[C@H]1c1ccc(F)cc1)C(=O)N1CCOCC1)c1ccccc1 [Example 11, N—((S)-6-(((1R,2S)-2-(4-fluorophenyl)cyclopropyl)amino)-1-morpholino-1-oxohexan-2-yl)benzamide]",–
< 1000 nM,+ (+ is ≥20%),"CN1CCN(C(=O)[C@H](CCCCN[C@@H]2C[C@H]2c2ccc(F)cc2)NC(=O)c2ccccc2)CC1 [Example 12, N—((S)-6-(((1R,2S)-2-(4-fluorophenyl)cyclopropyl)amino)-1-(4-methylpiperazin-1-yl)-1-oxohexan-2-yl)benzamide]",–
< 1000 nM,− (− is <20%),"O=C(N[C@@H](CCCCN[C@@H]1C[C@H]1c1ccc(F)cc1)C(=O)N1CCCCC1)c1ccc(F)cc1 [Example 13, 4-fluoro-N—((S)-6-(((1R,2S)-2-(4-fluorophenyl)cyclopropyl)amino)-1-oxo-1-(piperidin-1-yl)hexan-2-yl)]",–
< 1000 nM,− (− is <20%),"O=C(N[C@@H](CCCCN[C@@H]1C[C@H]1c1ccc(F)cc1)C(=O)N1CCCCC1)c1ccc(C(F)(F)F)cc1 [Example 14, N—((S)-6-(((1R,2S)-2-(4-fluorophenyl)cyclopropyl)amino)-1-oxo-1-(piperidin-1-yl)hexan-2-yl)-4-(trifluoromethyl)benzamide]",–
–,− (− is <20%),"O=C(N[C@@H](CCCCN[C@@H]1C[C@H]1c1ccc(F)cc1)C(=O)N1CCCCC1)c1ccc(-c2ccccc2)cc1 [Example 15, N—((S)-6-(((1R,2S)-2-(4-fluorophenyl)cyclopropyl)amino)-1-oxo-1-(piperidin-1-yl)hexan-2-yl)-[1,1′-biphenyl]-4-carboxamide]",–
< 1000 nM,+ (+ is ≥20%),"O=C(N[C@@H](CCCCN[C@@H]1C[C@H]1c1ccc(F)cc1)C(=O)N1CCS(=O)(=O)CC1)c1ccccc1 [Example 16, N—((S)-1-(1,1-dioxidothiomorpholino)-6-(((1R,2S)-2-(4-fluorophenyl)cyclopropyl)amino)-1-oxohexan-2-yl)benzamide]",–
–,− (− is <20%),"O=C(N[C@@H](COCCN[C@@H]1C[C@H]1c1ccc(F)cc1)C(=O)N1CCOCC1)c1ccc(F)cc1 [Example 20, 4-fluoro-N—((S)-3-(2-(((1R,2S)-2-(4-fluorophenyl)cyclopropyl)amino)ethoxy)-1-morpholino-1-oxopropan-2-yl)benzamide]",–
–,− (− is <20%),"O=C(CN[C@@H]1C[C@H]1c1ccc(F)cc1)NC[C@H](NC(=O)c1ccc(F)cc1)C(=O)N1CCOCC1 [Example 21, 4-fluoro-N—((S)-3-(2-(((1R,2S)-2-(4-fluorophenyl)cyclopropyl)amino)acetamido)-1-morpholino-1-oxopropan-2-yl)benzamide]",–
< 1000 nM,–,"O=C(N[C@@H](CCCCN[C@@H]1C[C@H]1c1ccc(F)cc1)C(=O)N1CCCCC1)c1cnc[nH]1 [Example 23, N—((S)-6-((1R,2S)-2-(4-fluorophenyl)cyclopropylamino)-1-oxo-1-(piperidin-1-yl)hexan-2-yl)-1H-imidazole-5-carboxamide]",–
–,+ (+ is ≥20%),"CN1CCN(C(=O)[C@H](CCCC(=O)N[C@@H]2C[C@H]2c2ccc(F)cc2)NC(=O)c2ccc(F)cc2)CC1 [Example 24, 4-fluoro-N—((S)-6-((1R,2S)-2-(4-fluorophenyl)cyclopropylamino)-1-(4-methylpiperazin-1-yl)-1,6-dioxohexan-2-yl)benzamide]",–
–,+ (+ is ≥20%),"COc1ccc([C@@H]2C[C@H]2NC(=O)COC[C@H](NC(=O)c2ccc(F)cc2)C(=O)N2CCOCC2)cc1 [Example 25, 4-fluoro-N—((S)-3-(2-((1R,2S)-2-(4-methoxyphenyl)cyclopropylamino)-2-oxoethoxy)-1-morpholino-1-oxopropan-2-yl)benzamide]",–
–,+ (+ is ≥20%),"COc1ccc([C@@H]2C[C@H]2NC(=O)CCC[C@H](NC(=O)c2ccc(F)cc2)C(=O)N2CCN(C)CC2)cc1 [Example 26, 4-fluoro-N—((S)-6-((1R,2S)-2-(4-methoxyphenyl)cyclopropylamino)-1-(4-methylpiperazin-1-yl)-1,6-dioxohexan-2-yl)benzamide]",–
–,− (− is <20%),"CS(=O)(=O)N1CCN(C(=O)[C@H](CCCN[C@@H]2C[C@H]2c2ccc(F)cc2)NC(=O)c2ccc(F)cc2)CC1 [Example 29, 4-fluoro-N-[(2S)-5-[[(1R,2S)-2-(4-fluorophenyl)cyclopropyl]amino]-1-(4-methanesulfonylpiperazin-1-yl)-1-oxopentan-2-yl]benzamide]",–
